Results reported in patent publication US5725870A, “Methods, composites and articles for contraception” (priority 1996, dated 1998).
≈ marks a conversion by molar mass, not a printed value. Where “and” joins values, the source holds several entries; their conditions need not be identical. Identical values can stand only once. Like-named read-outs stand apart in the source and are kept apart here.

Columns and labels:
[1] = Cytotoxicity in HIV experiments, test not described; format: cell-based
Source text: (§1) and may be prepared by the H2 O2 oxidation of cysteamine (Mills, Jr. et al, J. Am. Chem. Soc., vol. 62, 1173 (1940); and Barnett, J. Chem. Soc., 1944, 5).

HIV = experiment: Activity against HIV, test not described; format: cell-based
Source text: as §1

[2] = biological target: T1, sheep testicular hyaluronidase (Ovis aries, UniProt A0ACI6R774); experiment: Hyaluronidase inhibition assay; format: biochemical; conditions: for Absorbance at 545 nm, Reaction: blank 0.0463
T1 construct: soluble form of GPI-anchored sperm protein
T1 sequence (A0ACI6R774 34-551): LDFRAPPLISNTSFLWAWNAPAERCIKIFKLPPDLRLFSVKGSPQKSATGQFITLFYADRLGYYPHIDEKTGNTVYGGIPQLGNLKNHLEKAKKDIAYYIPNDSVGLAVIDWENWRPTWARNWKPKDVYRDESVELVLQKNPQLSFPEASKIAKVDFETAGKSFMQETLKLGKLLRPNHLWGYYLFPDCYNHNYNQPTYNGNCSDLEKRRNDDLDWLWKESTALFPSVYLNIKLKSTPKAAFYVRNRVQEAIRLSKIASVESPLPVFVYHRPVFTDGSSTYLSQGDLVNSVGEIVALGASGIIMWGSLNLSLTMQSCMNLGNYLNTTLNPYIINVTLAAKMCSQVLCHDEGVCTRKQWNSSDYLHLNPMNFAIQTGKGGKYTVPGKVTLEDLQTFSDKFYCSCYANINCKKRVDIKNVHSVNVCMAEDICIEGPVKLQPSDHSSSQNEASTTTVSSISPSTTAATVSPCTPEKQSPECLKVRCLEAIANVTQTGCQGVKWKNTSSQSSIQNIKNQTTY
Procedure: Hyaluronidase activity is quantified by measuring the extent of hyaluronic acid hydrolysis. This is measured by determining the concentration of N-acetylglucosamine-reactive material, resulting from enzyme action.
Reaction mixtures contain the following, in a total volume of 0.25 ml: 0.1M sodium acetate, containing 0.15M NaCl, pH 5.5 (Acetate buffer); 7.2 Units sheep testicular hyaluronidase (Sigma, Type III; cat. no. H-2251), from a stock solution dissolved in the Acetate buffer; 0.3 mg/ml hyaluronic acid (Sigma, from bovine vitreous humor, cat-no. H-7630).
The test compound is screened at a concentration of 1 mg/ml, unless aqueous solubility is limited. The enzyme is preincubated with the test agent for 10 minutes prior to starting the reaction by adding hyaluronic acid. Enzyme reactions are determined by the method of Aronson and Davidson (J. Biol. Chem., vol. 242, pp. 437-440 (1967)). Incubations are carried out for 30 minutes at ambient temperature. Reaction product is determined colorimetrically after reaction with p-dimethylaminobenzaldehyde (Reissig et al., J. Biol. Chem., vol. 217, pp. 959-966 (1955)). The absorbance of the resultant adduct is immediately determined at 545 nm.
Differences are determined between absorbencies for reactions run in the presence and absence of hyaluronidase (blank, in which hyaluronidase is added after terminating reaction). This is compared to a standard curve of known amounts of N-acetylglucosamine that were treated identically to enzyme reaction mixtures, and converted to μmole equivalents of N-acetylglucosamine. The data are reported as % inhibition, compared to control. A dose-response curve is generated at several concentrations of test compound if significant inhibition is obtained at the screening concentration.
(§2) IC50 values (those concentrations of inhibitor that produce 50% inhibition under the conditions of the assay) are determined by analyzing enzyme activity as a function of inhibitor concentration, with curve-fitting software (TableCurve 2D, version 3.02; Jandel Scientific).

Lactobacillus gasseri = experiment: Assay of vaginal lactobacillus growth; format: cell-based
Procedure: Cysteamine was screened with regard to its potential cytotoxicity toward normal vaginal flora. Growth of vaginal lactobacillus was used as a measure of this effect.
Lactobacillus gasseri, obtained from the American Type Culture Collection (Rockville, Md.) is cultured under anaerobic conditions at 37° in the presence of test agent or no additions (control). Beginning at 120 minutes after the start of incubation and at 20 minute intervals, for a total length of 240 minutes, samples are removed from the incubation flasks, and the absorbance of each suspension at 550 nm is determined, as an estimate of cell density. Data are fit to the equation, Ln (Absorbance)=a+b (Time), where a is the absorbance at 0 time, b is the slope of the curve, and time is measured in minutes. The doubling time (TD) is calculated from the equation TD =(Ln 2)/b. Values are given as the doubling time of bacterial growth, together with the 90% confidence limits. Inhibition of bacterial growth by a test agent can be directly calculated from the reciprocal values of the doubling time (i.e., 75% inhibition of the reciprocal of the calculated doubling time is equal to 75% inhibition of bacterial growth).
Dose-response curves are produced by determining the doubling time of the culture in the presence of each of several concentrations of test agent, the exact range of which is determined by the results of the screening test that is described above. The concentration of test agent that inhibits the growth of lactobacillus by 50% (IC50) is determined from the calculated doubling time at each concentration of test agent, with curve-fitting software (TableCurve 2D, version 3.02, Jandel Scientific).

HTLVIIIB = conditions: 100 μM, added twice-daily, CEM-T4 lymphocytes; cited from earlier work
CEM-T4 lymphocytes = conditions: 100 μM, added twice-daily; cited from earlier work
motile spermatozoa = experiment: Assessment of spermicidal activity (sperm motility, Sander and Cramer); format: cell-based
Procedure: The method is based on that originally described by Sander and Cramer (F. V. Sander and S. D. Cramer. Human Fertil., vol. 6, pp. 134 (1941)). Apparent spermicidal activity of the test agents are compared to that of a control preparation of nonoxynol-9 (N9).
For the screening of spermicidal activity of a test agent, a solution of 50 mg/ml is prepared in 0.9% NaCl. This solution is adjusted to pH 7.0 with either HCl or NaOH and is further diluted in 0.9% NaCl to concentrations of 25 mg/ml, 10 mg/ml, 5 mg/ml, and 2.5 mg/ml. N9 is prepared as a solution of 100 μg/ml in 0.9% NaCl.
The agents are tested by mixing 40 μl of freshly ejaculated semen with 200 μl of test agent at each concentration. Just prior to and 30 seconds after mixing, the percentage of motile spermatozoa is determined by microscopic observation (400×). If 90-100% inhibition of motility is obtained at the lowest concentration tested, the experiment is repeated with a different range of concentrations, the highest concentration being 2.5 mg/ml. A dose-response curve is constructed.

[3] = system: cystine crystals found in the corneas; conditions: topical aqueous 0.1% and 0.5%; cited from earlier work
Human acrosin = biological target: T2, Human acrosin (Homo sapiens, UniProt P10323); experiment: Acrosin inhibition assay; format: biochemical; conditions: for Acrosin Activity: control 5.4 ± 0.14; for Acrosin Inhibitor (active yes/no): screened at 1 mg/ml
T2 construct: human acrosin is isolated from washed spermatozoa from frozen semen; from tissue; host or cells: washed human spermatozoa from frozen semen; acid extract, ultrafiltration, Sephadex G-150 pool
T2 sequence (P10323 43-343 limits assumed): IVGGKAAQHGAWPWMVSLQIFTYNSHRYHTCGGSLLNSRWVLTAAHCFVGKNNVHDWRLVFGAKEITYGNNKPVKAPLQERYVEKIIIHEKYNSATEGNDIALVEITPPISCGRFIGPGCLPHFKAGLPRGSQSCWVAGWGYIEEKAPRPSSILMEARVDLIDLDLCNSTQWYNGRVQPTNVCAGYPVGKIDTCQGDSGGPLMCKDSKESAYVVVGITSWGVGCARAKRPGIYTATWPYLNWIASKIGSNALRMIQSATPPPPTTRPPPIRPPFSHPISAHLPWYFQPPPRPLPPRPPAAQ
T2 sequence (P10323 20-42 partner limits assumed): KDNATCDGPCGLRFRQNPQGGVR
Procedure: Human acrosin activity is measured by following the progression of hydrolysis of N-α-benzoyl-L-arginine ethyl ester (BAEE) spectrophotometrically at 253 nm. Enzyme isolation, partial purification and measurement are carried out by methods described in detail by Anderson et al. (Biochem. J., vol. 199, pp. 307-316 (1981)). Briefly, human acrosin is isolated from washed spermatozoa from frozen semen by extraction with 66 mM acetic acid, pH 2.8. The extract is concentrated by ultrafiltration (Amicon PM 10) and applied to a column that contains Sephadex G-150 (superfine); elution is carried out with 55 mM acetic acid that contains 0.1M NaCl. The eluted volume that contains acrosin activity is pooled and used as the source of enzyme.
Enzyme reaction mixtures contain the following: 50 mM sodium phosphate, pH 7.5 (Anderson et al, Arch. Biochem. Biophys., vol. 241, pp. 509-520 (1985)); Enzyme-containing protein (3-5 mIU, where 1 mIU is the amount of enzyme required to hydrolyze 1 nmole BAEE per min); 0.05 mM BAEE; with or without inhibitor, in a total volume of 1.0 ml.
The test compound is screened at a concentration of 1 mg/ml, unless solubility is limited. The enzyme is preincubated with the test agent for 5 minutes prior to starting the reaction by adding BAEE. Reaction blanks, in which either substrate or enzyme has been eliminated, are run in parallel to the reactions.
The rate of change in absorbance at 253 nm is determined. The change in absorbance that corresponds to 1 μmole of BAEE (in a total volume of 1.0 ml) hydrolyzed is taken as 1.15.
The enzyme activity in the presence of each agent is compared with that for the control reaction (no test agent added). The data are reported as % inhibition. […] A dose-response curve is generated at several concentrations of test compound if significant inhibition is obtained at the screening concentration.
Reversibility of acrosin inhibition is determined by the method of Ackermann and Potter (Proc. Soc. Exp. Biol. Med., vol. 72, pp. 1-9 (1949)), in which the level of inhibited enzyme activity is determined in the presence of different amounts of enzyme.
as §2

epithelial fibroblasts = conditions: cited from earlier work
[4] = 1 mg/ml test agent, 10 min preincubation

NCCSSCCN [Cystamine]
Cytotoxicity ([1]; 100 μM): little cytotoxicity | Activity against the HIV pathogen (HIV): substantial activity

nonylphenoxypolyoxyethene glycol [nonoxynol-9, reference compound]
% Inhibition at 1 mg/ml (hyaluronidase) [2, 4]: 4% | % Inhibition (growth of vaginal lactobacillus) (Lactobacillus gasseri; Tested at 0.5 mg/ml): 60%

NCCS [cysteamine, Cysteamine]
IC20 [2]: 87 mg/L (≈ 1130 µM) | IC80 [2]: 219 mg/L (≈ 2840 µM) | % Inhibition at 1 mg/ml (hyaluronidase) [2, 4]: completely inhibit | inhibition at 1000 µg/mL [2, 4]: 100% | Absorbance at 545 nm, Reaction ([2]; cysteamine 1.6 μg/ml): 0.1892 and 0.1967 | Absorbance at 545 nm, Reaction ([2]; cysteamine 8.0 μg/ml): 0.1955 and 0.1853 | Absorbance at 545 nm, Reaction ([2]; cysteamine 40.0 μg/ml): 0.1775 and 0.1855 | Absorbance at 545 nm, Reaction ([2]; cysteamine 200 μg/ml): 0.0585 and 0.0656 | Absorbance at 545 nm, Reaction ([2]; cysteamine 1,000 μg/ml): 0.0068 and 0.0069 | Hyaluronidase Inhibitor (yes/no) ([2]; summary table): Yes | Cellular toxicity [1]: lack of cellular toxicity | Survival of treated cells, protection against HTLVIIIB (HTLVIIIB): 133 % of control | % Inhibition at 5 mg/ml (growth of vaginal lactobacillus) (Lactobacillus gasseri): no effect | % Inhibition at 5 mg/ml (growth of vaginal lactobacillus) (Lactobacillus gasseri; listed as Cysteamine): No inhibition | inhibition at 5000 µg/mL (Lactobacillus gasseri; Lactobacillus gasseri, read-out: % Inhibition at 5 mg/ml (growth of vaginal lactobacillus)): 0% | Toxicity (cell survival) (CEM-T4 lymphocytes): 120.8 % of control | Spermicide (effect on sperm motility, in words) (motile spermatozoa): reduce sperm motility | Spermicide (effect on sperm motility, in words) (motile spermatozoa; listed as Cysteamine): Yes | Reduction of corneal cystine crystals [3]: effective in reducing the cystine crystals | Tolerability in chronic topical use [3]: well-tolerated | Acrosin Activity (Human acrosin; cysteamine 0.08 mg/ml): 5.2 ± 0.74 μmoles BAEE hydrolyzed/min/mg | Acrosin Activity (Human acrosin; cysteamine 0.10 mg/ml): 3.8 ± 0.32 μmoles BAEE hydrolyzed/min/mg | Acrosin Activity (Human acrosin; cysteamine 0.25 mg/ml): 3.4 ± 0.10 μmoles BAEE hydrolyzed/min/mg | Acrosin Activity (Human acrosin; cysteamine 0.50 mg/ml): 2.2 μmoles BAEE hydrolyzed/min/mg | Acrosin Activity (Human acrosin; cysteamine 0.8 mg/ml): 0.9 ± 0.28 μmoles BAEE hydrolyzed/min/mg | Acrosin Activity (Human acrosin; cysteamine 1.0 mg/ml): 0.6 μmoles BAEE hydrolyzed/min/mg | 3 Log reduction (99.9% inhibition) of acrosin (Human acrosin; from fitted curve, above highest tested concentration): 3.3 mg/ml | IC99.9 (Human acrosin; from fitted curve, above highest tested concentration, read-out: 3 Log reduction (99.9% inhibition) of acrosin): 3270 µg/mL | Reversibility of acrosin inhibition (Human acrosin; method of Ackermann and Potter, different amounts of enzyme): consistent with a reversible mechanism of inhibition | Acrosin Inhibitor (active yes/no) (Human acrosin): active | Acrosin Inhibitor (active yes/no) (Human acrosin; listed as Cysteamine): Yes | IC50 (Human acrosin; summary table): 4.8 mM | Cloning efficiency (epithelial fibroblasts; 10 μM): severe loss in cloning efficiency | Cloning efficiency (epithelial fibroblasts; One hundred μM): zero | Doubling time (epithelial fibroblasts; One hundred μM): two-fold increase | Effect on growth rate (epithelial fibroblasts; concentrations up to 10 μM): no effect on growth rate | Antiviral effect against HIV (HIV; other cell lines and other HIV strains): substantiate the antiviral effect
